What was measured:
[1] = Carotenoid ester content and deposition rate in egg yolk of laying hens (HPLC); format: in vivo, laying hens (ISA Brown); conditions: egg yolk; for Deposition Rate Target Values % of Controls / Ethyl β-apo-8′-carotenoate Equivalents % of Controls: Table 8; for Deposition Rate % of Controls: Table 10
Outline: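 Hens were first depleted for at least 28 days on a low-carotenoid basal diet (<2 mg total xanthophylls/kg, also the control diet), then fed mash supplemented with the pigments ad libitum for three weeks. Pooled homogenised yolk was extracted with ethanol/n-hexane and analysed by HPLC, calibrated with all-E ethyl β-apo-8′-carotenoate. Response factors were adjusted by molecular weight, and Z-isomers were corrected by a factor of 1.4.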

[2] = Carotenoid ester content in plasma, back skin and abdominal fat of broilers (HPLC); format: in vivo, broiler chickens (Ross 308, Ross 508); conditions: average over doses, Table 4
Outline: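 Ross 308/508 broilers, raised on low-carotenoid basal diet (<2 mg xanthophylls/kg) to day 15 or 22, then fed pigment-supplemented diet for three weeks; plasma sampled day 42, back skin and abdominal fat pooled per group at slaughter on day 44. Carotenoid esters quantified by normal-phase HPLC (0.5% acetone in n-hexane) calibrated with all-E ethyl β-apo-8′-carotenoate; Z-isomers corrected by factor 1.4.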

[3] = tested on: egg yolk; test: Egg yolk colour: reflectance colorimetry and Roche Yolk Colour Fan; format: in vivo, laying hens (ISA Brown); conditions: egg yolk, laying hens, 5.0 mg/kg feed
Outline: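 ISA Brown laying hens, depleted at least 28 days on low-carotenoid basal diet (<2 mg xanthophylls/kg), fed pigment-supplemented mash ad libitum for three weeks. Pooled yolks of three to six eggs scored with Roche Yolk Colour Fan and measured by reflectance colorimetry (D65, 8°) as CIE L*a*b*, h*, C*; values average four yolk pools.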

[4] = tested on: skin and shanks of broilers; test: Reflectance colorimetry and visual classification of skin and shanks of broilers; format: in vivo, broiler chickens (Ross 308, Ross 508); parameters: key to Shanks Visual Classification / Skin Visual Classification: −; (+); +; ++ = good color; o = orange; conditions: dry carcasses, average over doses, Table 6
Outline: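 Ross broilers were fed a low-carotenoid basal diet (<2 mg xanthophylls/kg), then received pigment-supplemented diet for three weeks and were slaughtered on day 44. Back-skin colour (mean of three points) and shank colour (single reading) were measured by Minolta chromameter (D65, 0°) and reported as CIE L*a*b*, h* and C*, averaged over ten birds (5 male, 5 female).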

CCC(CC)COC(=O)C(C)=CC=CC(C)=CC=CC=C(C)C=CC=C(C)C=CC1=C(C)CCCC1(C)C [(9), 2-ethyl-1-butyl beta-apo-8′-carotenoate]
Deposition Rate Target Values % of Controls ([1]; trial H-25/99, 5.0 mg/kg feed): 87% | Ethyl β-apo-8′-carotenoate Equivalents % of Controls ([1]; trial H-25/99, 5.0 mg/kg feed): 77% | Deposition Rate % of Controls ([1]; trial H-25/99, 5.0 mg/kg feed): 87% | Analytical Content as Equivalent of Ethyl β-apo-8′-carotenoate in % of control Fat [2]: 45% | Analytical Content as Equivalent of Ethyl β-apo-8′-carotenoate in % of control Plasma [2]: 59% | Analytical Content as Equivalent of Ethyl β-apo-8′-carotenoate in % of control Skin [2]: 55% | Color Fan Value % of Controls ([3]; trial H-25/99, Table 8): 101% | Chroma C*ab % of Controls ([3]; trial H-25/99, Table 10): 99% | Color Fan Value % of Controls ([3]; trial H-25/99, Table 10): 101% | Color Hue h*ab % of Controls ([3]; trial H-25/99, Table 10): 92% | Shanks Chroma C*ab % of Controls [4]: 92% | Shanks Color Hue h*ab % of Controls [4]: 101% | Shanks Visual Classification [4]: (+) | Skin Chroma C*ab % of Controls [4]: 82% | Skin Color Hue h*ab % of Controls [4]: 101% | Skin Visual Classification [4]: +

COC(=O)C(C)=CC=CC(C)=CC=CC=C(C)C=CC=C(C)C=CC1=C(C)CCCC1(C)C [(1), methyl beta-apo-8′-carotenoate]
Deposition Rate Target Values % of Controls ([1]; trial H-18/99, 5.0 mg/kg feed): 99% | Ethyl β-apo-8′-carotenoate Equivalents % of Controls ([1]; trial H-18/99, 5.0 mg/kg feed): 95% | Deposition Rate % of Controls ([1]; trial H-18/99, 5.0 mg/kg feed): 99% | Analytical Content as Equivalent of Ethyl β-apo-8′-carotenoate in % of control Fat [2]: 85% | Analytical Content as Equivalent of Ethyl β-apo-8′-carotenoate in % of control Plasma [2]: 88% | Analytical Content as Equivalent of Ethyl β-apo-8′-carotenoate in % of control Skin [2]: 87% | Color Fan Value % of Controls ([3]; trial H-18/99, Table 8): 130% | Chroma C*ab % of Controls ([3]; trial H-18/99, Table 10): 104% | Color Fan Value % of Controls ([3]; trial H-18/99, Table 10): 130% | Color Hue h*ab % of Controls ([3]; trial H-18/99, Table 10): 99% | Shanks Chroma C*ab % of Controls [4]: 97% | Shanks Color Hue h*ab % of Controls [4]: 101% | Shanks Visual Classification [4]: (+) | Skin Chroma C*ab % of Controls [4]: 97% | Skin Color Hue h*ab % of Controls [4]: 100% | Skin Visual Classification [4]: (+)

Reference: patent publication US6896895B2, “Carotenoid esters, carotenoid-enriched feeds, and methods of pigmenting foods and foodstuffs” (DSM IP Assets B.V., priority 2000, dated 2005)
